For one data set, the target named is T1, hKv1.5 channel (Homo sapiens, UniProt P22460).
T1 construct: expressed in transfected cells; host or cells: mouse Ltk- cells (pMSVneo vector, G418 selection)
As to the kind of experiment: Block of hKv1.5 channel currents expressed in Ltk-cells (whole cell patch clamp). Format: cell-based. Conditions: for Hill value: from concentration-response curves using the Hill equation; for IC50 / type of hKv1.5 block / effect on the hKv1.5 channel currents: hKv1.5 expressed in Ltk-cells; for IC50: steady-state current at end of +50 mV depolarizing pulse, holding -80 mV; for type of hKv1.5 block: FIGS. 1a to 1e; for effect on the hKv1.5 channel currents: FIGS. 1a to 1d. The procedure:
Cell line selectively expressing a specific cardiac K^+ channel gene was prepared according to the method described in the thesis (Yang, et al., Inhibition of cardiac potassium currents by the vesnarinone analog OPC-18790: comparison with quinidine and dofetilide. J Pharmacol Exp Ther. 1997, 280: 1170-1175; Kwak, et al., Phosphorylation is required for alteration of Kv1.5 K^+ channel function by the Kvbeta 1.3 subunit. J Biol Chem 1999, 274: 25355-25361).
First, cDNAs for human cardiac K^+ channel genes such as hKv 1.5 and HERG were subcloned into pMSVneo which contain dexamethasone-inducible murine mammary tumor virus promoter controlling transcription of the inserted cDNA and a gene conferring neomycin resistance driven by the SV40 early promotor. The cDNA-containing expression vector was transfected into mouse Ltk-cells with lipofectamine. After 24 hours, the cells selection with […] of G418 was performed for 2 weeks or until discrete foci formed. Individual foci were isolated, maintained in 0.25 μg/ml of G418, and screened by Norhtern analysis and electrophysiological analysis. Transfected cells were cultured in Dulbeco's modified Eagle medium (DMEM) supplemented with 10% horse serum and 0.25 μg/ml of G418, under 5% CO2. Transiently transfected cells were cultured in DMEM media supplemented with only 10% horse serum, differently from stable cell lines.
Currents in human atrial myocytes and cell lines were recorded by using the whole cell configuration of the gigaohm-seal patch clamp techniques (Kwak, et al., Phosphorylation is required for alteration of Kv1.5 K^+ channel function by the Kvbeta 1.3 subunit. J Biol Chem 1999, 274: 25355-25361). First, electrical signals were amplified with a patch clamp amplifier (Axon Instruments, Axopatch-1D, Foster, USA). Currents were digitized by a signal converter (Digidata 1200, Axon Instruments) and stored on the hard disk of a computer. The micropipette with a resistance of 1˜2MΩ (Kimax-51, 1.5=14 1.8×10 mm) for current recording, was pulled out by a 2-stage pipette puller (Narishige, PP-83). The intracellular pipette-filling solution for whole cell mode contained 100 mM KCl, 10 mM HEPES, 5 mM K4BAPTA, 5 mM K2ATP and 1 mM MgCl2 (pH 7.2). The extracellular solution contained 130 mM NaCl, 4 mM KCl, 1.8 mM CaCl2, 1 mM MgCl2, 10 mM HEPES and 10 mM glucose (pH 7.35).
The current traces were recorded with a depolarizing pulse of +50 mV from a holding potential of −80 mV, followed by a repolarizing pulse of −50 mV in the Ltk-cells. To observe the concentration-dependent block of hKv1.5 channel currents by each compound, steady-state currents taken at the end of the depolarizing pulse of +50 mV were normalized to the control obtained in the absence of each compound
FIG. 1e is concentration-response curves showing the relative steady-state currents obtained at the end of the depolarizing pulse against the concentration of each compound. Data were fitted with a Hill equation.
IC50 values (50% inhibitory concentration, μM) of compounds 1˜14 on the hKv1.5 channel currents were determined, and Hill values were calculated from the concentration-response curves of the respective compounds using the Hill equation.
Background: In patch-clamp work, channel activity is measured electrically.

The subject of the next data set is rabbit atrial tissue. As to the kind of experiment: Frequency-dependent effects on action potentials of rabbit atrial tissue (APD90). It counts as cell-based. The settings on record: varied stimulus frequencies, FIG. 5c; compared to chelidonine. The procedure: Action potentials in rabbit atrial tissue were recorded according to the method described in thesis by Kwak, et al. (A newly synthesized benzopyran derivatives, activates the cardiac ATP-sensitive K^+ channel. J Pharmacol Exp Ther 1995, 275: 807-812).
Male New Zealand white rabbits weighing about 2 kg were stunned with a blow on the head and hearts were rapidly excised and transferred to a dissection bath filled with Tyrode's solution saturated with 97% O2 and 3% CO2 gas mixture and each dissected tissue was mounted horizontally in a narrow channel of a tissue chamber and continuously superfused with the Tyrode's solution at 37° C. The action potentials were elicited by stimulating the cardiac cells with square pulses (1˜5 Hz, 1-ms duration, 20-30% above threshold voltage) by a stimulator. […] Tracings on the oscilloscope screen were photographed on a 35-mm film and also recorded on a physiograph (RS 3400, Gould, Cleveland, Ohio). APD90 was used for the comparison of action potential durations. APD90 represents the action potential duration at 90% repolarization, relative to the action potential duration at maximum 100% depolarization. Images on the oscilloscope screen were captured on Polaroid camera.
We tested whether the effect of chelidonine on action potentials of rabbit atrial myocytes are frequency-dependent or not.
The relative action potential durations were normalized to the APD90 value in the absence of chelidonine at each frequency. At the stimulus frequency of 1, 2, 3, 4 and 5 Hz, 1 μM chelidonine increased APD90 by 13.0±8.1% (n=5), 14.5±7.9% (n=5), 16.5±2.2% (n=5) 28.2±0.4% (n=5) or 33.0±0.3 1% (n=5) of the control APD90 in the absence of chelidonine at each frequency, respectively.

Another data set relates to mouse. Conditions: in vivo, cited from earlier work.

Where two headings read alike, the source gives them in different places.

T1 sequence (P22460 whole entry): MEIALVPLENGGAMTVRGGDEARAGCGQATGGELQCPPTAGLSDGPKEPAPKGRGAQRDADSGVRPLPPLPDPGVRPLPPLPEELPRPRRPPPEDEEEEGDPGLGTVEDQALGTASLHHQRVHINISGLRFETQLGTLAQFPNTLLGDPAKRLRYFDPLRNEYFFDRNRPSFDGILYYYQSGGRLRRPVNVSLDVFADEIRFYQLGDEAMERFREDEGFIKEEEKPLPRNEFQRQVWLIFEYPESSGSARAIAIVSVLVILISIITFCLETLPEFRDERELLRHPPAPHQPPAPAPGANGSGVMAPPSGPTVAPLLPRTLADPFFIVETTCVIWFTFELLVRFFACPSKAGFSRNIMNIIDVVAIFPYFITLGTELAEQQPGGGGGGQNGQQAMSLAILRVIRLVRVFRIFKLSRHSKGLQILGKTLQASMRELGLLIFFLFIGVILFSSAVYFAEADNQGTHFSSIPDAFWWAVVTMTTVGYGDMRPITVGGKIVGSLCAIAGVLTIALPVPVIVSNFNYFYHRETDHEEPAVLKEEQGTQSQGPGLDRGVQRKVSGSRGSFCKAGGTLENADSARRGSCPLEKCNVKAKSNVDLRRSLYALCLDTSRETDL

A word on the IC50: it is the concentration at which inhibition is half-maximal. A low value points to greater potency in that assay. For the compound `CO[C@H]1Cc2cc3c(cc2[C@@H]2[C@H]1c1ccc4c(c1CN2C)OCO4)OCO3` [Compound 2, [5bR-(5bα,6β,12bα)]-5b,6,7,12b,13, 14-hexahydro-6-methoxy-13-methyl[1,3]-benzodioxolo[5,6c]-1,3-dioxolo[4,5-i]phenanthridine], at hKv1.5 channel, the Hill value came out at 1.29 and the half-maximal inhibitory concentration (IC50) was found to be 45.2 ± 4.1 µM.

On hKv1.5 channel, `CN1Cc2c(ccc3c2OCO3)[C@H]2[C@@H](OCc3ccccc3)Cc3cc4c(cc3[C@H]21)OCO4` [Compound 3, [5bR-(5bα,6β,12bα)]-5b,6,7,12b,13, 14-hexahydro-6-benzyloxy-13-methyl[1,3]benzodioxolo[5,6c]-1,3-dioxolo[4,5-i]phenanthridine] displayed a Hill value of 1.37 and a concentration for half-maximal inhibition (IC50) of 59.3 ± 3 µM.

In the case of `CC(=O)O[C@H]1Cc2cc3c(cc2[C@@H]2[C@H]1c1ccc4c(c1CN2C)OCO4)OCO3` [Compound 4, {[5bR-(5bα,6β,12bα)]-5b,6,7,12b,13, 14-hexahydro-13-methyl[1,3]benzodioxolo[5,6c]-1,3-dioxolo[4,5-i]phenanthridin-6-yl}-acetate], in the data set on rabbit atrial tissue, the “action potential duration prolongation” value is “increased the action potential durations in the similar manner as chelidonine, but to a lesser extent”. Further, at hKv1.5 channel, the Hill value is given as 1.34, the “type of hKv1.5 block” value is “predominantly blocked the open ion channels”, the “effect on the hKv1.5 channel currents” value is listed as “concentration-dependent inhibitory effects” and 11.3 ± 3.3 µM corresponded to half-maximal inhibition (IC50).

With `CN1Cc2c(ccc3c2OCO3)[C@H]2[C@@H](OC(=O)c3ccccc3)Cc3cc4c(cc3[C@H]21)OCO4` [Compound 5, {[5bR-(5bα,6β,12bα)]-5b,6,7,12b,13, 14-hexahydro-13-methyl[1,3]benzodioxolo[5,6c]-1,3-dioxolo[4,5-i]phenanthridin-6-yl}-benzoate], the “action potential duration prolongation” value in the data set on rabbit atrial tissue is “increased the action potential durations in the similar manner as chelidonine, but to a lesser extent”. Besides, on hKv1.5 channel, the Hill value was found to be 1.18, the “type of hKv1.5 block” value was “showed the tonic blocking effects”, the “effect on the hKv1.5 channel currents” value is recorded as “concentration-dependent inhibitory effects” and the IC50 was 29.3 ± 4.2 µM.

At hKv1.5 channel, `CN1Cc2c(ccc3c2OCO3)-c2ccc3cc4c(cc3c21)OCO4` [Compound 6, (12bR)-13,14-dihydro-13-methyl [1,3]benzodioxolo[5,6c]-1,3-dioxolo[4,5-i]phenanthridine] came in with a Hill value of 1.09 and an IC50 of 26.4 ± 3.9 µM.

On hKv1.5 channel, `CN1Cc2c(ccc3c2OCO3)C2=CCc3cc4c(cc3[C@H]21)OCO4` [Compound 7, (12bR)-7,12b,13,14-tetrahydro-13-methyl[1,3]-benzodioxolo[5,6c]-1,3-dioxolo[4,5-i]phenanthridine] came in with a Hill value of 0.98 and a 50% inhibitory concentration (IC50) of 19.9 ± 3.5 µM.

On hKv1.5 channel, `CN1Cc2c(ccc3c2OCO3)[C@H]2CCc3cc4c(cc3[C@H]21)OCO4` [Compound 8, [5bR-(5bα,6β,12bα)]-5b,6,7,12b,13, 14-hexahydro-13-methyl[1,3] benzodioxolo[5,6c]-1,3-dioxolo[4,5-i]phenanthridine] had a Hill value of 1.38 and an IC50 of 65.6 ± 4.2 µM.

Compound `CN1Cc2c(ccc3c2OCO3)[C@H]2[C@@H](OP(=O)(Oc3ccccc3)Oc3ccccc3)Cc3cc4c(cc3[C@H]21)OCO4` [Compound 9, {[5bR-(5bα,6β,12bα)]-5b,6,7,12b,13, 14-hexahydro-13-methyl[1,3]benzodioxolo[5,6c]-1,3-dioxolo[4,5-i]phenanthridin-6-yl}-diphenylphosphate] registered a Hill value on hKv1.5 channel of 1.26.

At hKv1.5 channel, `CN1Cc2c(ccc3c2OCO3)[C@H]2[C@@H](OS(C)(=O)=O)Cc3cc4c(cc3[C@H]21)OCO4` [Compound 10, {[5bR-(5bα,6β,12bα)]-5b,6,7,12b,13, 14-hexahydro-13-methyl[1,3]benzodioxolo[5,6c]-1,3-dioxolo[4,5-i]phenanthridin-6-yl}-methanesulfonate] came in with a Hill value of 1.20 and an IC50 of 31.3 ± 3.5 µM.

Consider `Cc1ccc(S(=O)(=O)O[C@H]2Cc3cc4c(cc3[C@@H]3[C@H]2c2ccc5c(c2CN3C)OCO5)OCO4)cc1` [Compound 11, {[5bR-(5bα,6β,12bα)]-5b,6,7,12b,13, 14-hexahydro-13-methyl[1,3]benzodioxolo[5,6c]-1,3-dioxolo[4,5-i]phenanthridin-6-yl}-4-methylbenzenesulfonate], for which, at hKv1.5 channel, the Hill value is 1.19 and it took 29.6 ± 3.7 µM to reach half-maximal inhibition (IC50).

`CN1Cc2c(ccc3c2OCO3)[C@H]2[C@@H](OC(N)=O)Cc3cc4c(cc3[C@H]21)OCO4` [Compound 12, {[5bR-(5bα,6β,12bα)]-5b,6,7,12b,13, 14-hexahydro-13-methyl[1,3]benzodioxolo[5,6c]-1,3-dioxolo[4,5-i]phenanthridin-6-yl}-carbamate]: at hKv1.5 channel, the Hill value is 1.12 and the IC50 was found to be 1.9 ± 1 µM.

On hKv1.5 channel, `CN1Cc2c(ccc3c2OCO3)[C@@]2(C)[C@@H](O)Cc3cc4c(cc3[C@@H]12)OCO4` [Compound 13, [5bR-(5bα,6β,12bα)]-5b,6,7,12b,13, 14-hexahydro-5b,13-dimethyl[1,3]-benzodioxolo[5,6c]-1,3-dioxolo[4,5-i] phenanthridin-6-ol] yielded a Hill value of 1.34.

With `C[n+]1cc2c3c(ccc2c2ccc4cc5c(cc4c21)OCO5)OCO3` [Compound 14, 13-methyl[1,3]benzodioxolo[5,6c]-1,3-dioxolo[4,5-i]phenanthridinium], in the data set with rabbit atrial tissue, the “action potential duration prolongation” value was “increased the action potential durations in the similar manner as chelidonine, but to a lesser extent”. Moreover, the toxicity in the data set with mouse (iv) was 15.9 mg/kg. For the same compound, the toxicity in the data set on mouse (sc) is on record as 102.0 mg/kg. In addition, at hKv1.5 channel, the Hill value came out at 1.39, the “type of hKv1.5 block” value was “slowed the channel activation”, the “effect on the hKv1.5 channel currents” value is “concentration-dependent inhibitory effects” and the IC50 was 13 ± 3.8 µM.
